# Measured values: US20150266878A1, “NOVEL BI-RING PHENYL-PYRIDINES/PYRAZINES FOR THE TREATMENT OF CANCER” (HOFFMANN-LA ROCHE INC., priority 2012, published 2015)
# Experiments:
# [1] = test system: AGS (gastric cancer); test: In vitro cell proliferation assay (CCK-8), AGS; assay type: cell-based; conditions: Homo sapiens, AGS cells, 72 hours
# Description: (§1) In Vitro Cell Proliferation Assay:
# (§2) Cells were seeded on 96-well plates at 5×10^3 cells per well and precultured for 24 hours. The cells were treated with serial diluted compounds and cultured for 72 hours. Then all media was discarded and after that, 100 μL 1:10 (v/v) Cell Counting Kit-8 (CCK-8)-culture media solution was added to the wells. Plate was developed for 2 hours in an incubator, and the absorbance was measured at 450 nm wavelengths with SpectraMAX190 (MDS, Sunnyvale, Calif.). The inhibition rate (IR) of the tested compounds was determined with following formula: IR (%)=(ODDMSO−ODcompound)/ODDMSO×100%. The concentration corresponding to 50% IR (IC50) was determined with plot curve of IR against tested compound concentrations with SoftMax Pro.
# [2] = test system: SW-837 (colorectal cancer); test: In vitro cell proliferation assay (CCK-8), SW-837; assay type: cell-based; conditions: Homo sapiens, SW837, SW-837 cells, 72 hours
# Description: as §1, §2
# [3] = test system: HCT116 (colorectal cancer); test: In vitro cell proliferation assay (CCK-8), HCT116; assay type: cell-based; conditions: Homo sapiens, HCT-116, HCT116 cells, 72 hours
# Description: as §1, §2
# [4] = target: T1, CDK8/Cyclin C (Homo sapiens, UniProt P49336); test: CDK8/Cyclin C LANCE TR-FRET kinase assay; assay type: biochemical; conditions: CDK8/Cyclin C 10 nM, ATP 24 μM, Ulight-GS peptide 80 nM, 37° C. 30 mins
# T1 construct: purchased Invitrogen PV4402
# T1 sequence (P49336 whole entry): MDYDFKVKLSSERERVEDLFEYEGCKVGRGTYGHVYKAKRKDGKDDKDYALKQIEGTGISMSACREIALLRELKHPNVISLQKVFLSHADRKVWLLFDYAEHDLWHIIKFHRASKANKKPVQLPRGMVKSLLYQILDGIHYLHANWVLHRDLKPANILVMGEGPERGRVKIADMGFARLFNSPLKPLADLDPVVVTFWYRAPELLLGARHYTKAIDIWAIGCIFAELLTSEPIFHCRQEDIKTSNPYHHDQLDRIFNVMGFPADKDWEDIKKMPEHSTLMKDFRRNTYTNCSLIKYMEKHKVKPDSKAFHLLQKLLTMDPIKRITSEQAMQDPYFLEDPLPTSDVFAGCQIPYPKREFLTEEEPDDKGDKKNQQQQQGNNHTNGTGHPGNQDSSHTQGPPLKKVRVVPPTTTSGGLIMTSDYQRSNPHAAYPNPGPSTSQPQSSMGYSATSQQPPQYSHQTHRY
# T1 sequence (P24863 whole entry partner): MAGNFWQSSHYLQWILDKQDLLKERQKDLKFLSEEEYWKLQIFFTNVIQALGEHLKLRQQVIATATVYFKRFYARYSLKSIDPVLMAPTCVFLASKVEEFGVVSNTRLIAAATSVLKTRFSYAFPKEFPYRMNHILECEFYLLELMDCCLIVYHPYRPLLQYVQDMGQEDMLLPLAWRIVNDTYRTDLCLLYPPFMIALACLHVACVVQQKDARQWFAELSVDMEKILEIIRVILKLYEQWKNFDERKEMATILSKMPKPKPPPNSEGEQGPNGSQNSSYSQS
# Description: CDK8/Cyclin C LANCE TR-FRET Kinase Assay:
# The biological activity of the compounds of the invention can be determined using the assay described below.
# CDK8/Cyclin C protein was obtained from Invitrogen, cat #PV4402. ULight-Glycogen Synthase (Ulight-GS) peptide with sequence PASVPPSPSLSRHSSPHQ(pS)ED, and Europium-anti-phospho Glycogen Synthase (Ser641) [Eu-anti-P-GS (Ser641)] were obtained from Perkin Elmer, cat #TRF0131-M and cat #TRF0220. Adenosine-5′-triphosphate (ATP) was obtained from Invitrogen, cat #PV3227.
# A mixture of (1) a compound of formula I, (2) substrate [Ulight-GS peptide (80 nM) and ATP (24 μM)], and (3) CDK8/Cyclin C (10 nM) in reaction buffer (50 mM Hepes, pH7.0, 10 mM MgCl2, 1 mM EGTA, 0.2 mg/mL BSA, 0.8 mM DTT) were incubated at 37° C. for 30 mins. Then, [Eu-anti-P-GS (Ser641)] (1.5 nM) was added. Following incubation at room temperature for 30 mins, the TR-FRET signals were detected using Envision reader (Ex 340 nm, Em 615 nm and 665 nm) from Perkin Elmer. The reactivity in percentage of inhibition or dose response was analyzed with GraphPad Prism 5 (GraphPad Software).
Compound,IC50 [1],IC50 [2],IC50 [3],IC50 [4]
"OC[C@H](Nc1cncc(-c2ccc3[nH]ncc3c2)c1)c1ccccc1 [Example 16, (R)-2-[5-(1H-Indazol-5-yl)-pyridin-3-ylamino]-2-phenyl-ethanol]",0.033 µM,0.091 µM,0.037 µM,0.2 nM
"O=C1Cc2cc(-c3cncc(N[C@@H](CO)c4ccccc4)c3)ccc2N1 [Example 1, 5-[5-((R)-2-Hydroxy-1-phenyl-ethylamino)-pyridin-3-yl]-1,3-dihydro-indol-2-one]",0.65 µM,2.3 µM,0.66 µM,3.5 nM
"CC(C)C(=O)NC[C@H](Nc1cncc(-c2ccc3[nH]nc(F)c3c2)c1)c1ccccc1 [Example 44, N-{(R)-2-[5-(3-Fluoro-1H-indazol-5-yl)-pyridin-3-ylamino]-2-phenyl-ethyl}-isobutyramide]",,,,3.1 nM
"CC(=O)NC[C@H](Nc1cncc(-c2ccc3c(c2)CC(=O)N3)c1)c1ccccc1 [Example 30, N-{(R)-2-[5-(2-Oxo-2,3-dihydro-1H-indol-5-yl)-pyridin-3-ylamino]-2-phenyl-ethyl}-acetamide]",,,,22.7 nM
"Cc1n[nH]c2ccc(-c3cncc(N[C@@H](CNC(=O)C4CCCCC4)c4ccccc4)c3)cc12 [Example 57, Cyclohexanecarboxylic acid {(R)-2-[5-(3-methyl-1H-indazol-5-yl)-pyridin-3-ylamino]-2-phenyl-ethyl}-amide]",,,,5.3 nM
